The source of these data is article PMC11784099 (Journal of Virology, 2024).

For orientation: IC50 means the concentration needed to halve the response being measured.

Series [1] has as its system Pseudorabies virus (Ra strain). In words: microbe, parasite or virus in culture. The class given is cell-based.
Series [2] has as its system cGAS/STING signaling pathway. The class given is cell-based, pigs.
A short description of another series: in vitro. The settings on record: pig.
A further series has as its system cGAMP production. The class given is cell-based, pigs.
Series [3] relates to JAK/STAT signaling pathway. The series is classed as cell-based, pigs.
Series [4] has as its system PRV. Particulars: mouse, in vivo; cited from earlier work.
In series [5] the test system is type I interferon signaling pathway. The arrangement: species or system mice. The settings on record: mouse, in vivo.
For series [6] the test system is unchanged. The arrangement: species or system mice. Particulars: mouse, in vivo. The source holds these as a separate data set.
A further series has as its system IFN-β. On the set-up: species or system mice. Particulars: mouse, in vivo.
In a further series the test system is p-IRF3. The class given is cell-based, pigs.
Series [7] has as its system cGAS/STING signaling pathway. The class given is cell-based.
In series [8] the test system is IRF3 phosphorylation (cGAS/STING signaling pathway). The class given is cell-based, pigs.
The test system of series [9] is PRV. The arrangement: species or system mice. Particulars: mouse, in vivo.
Series [10] has as its system JAK/STAT signaling pathway. The series is classed as cell-based, pigs. The source holds these as a separate data set.
The test system of a further series is IFN-β promoter. The class given is cell-based.
Setting [11] is: Suid alphaherpesvirus 1, PK-15, 1 h.

Like-named read-outs stand apart in the source and are kept apart here.

For `CC1(C)[C@@H](O[C@H]2O[C@H](C(=O)O)[C@@H](O)[C@H](O)[C@H]2O[C@@H]2O[C@H](C(=O)O)[C@@H](O)[C@H](O)[C@H]2O)CC[C@]2(C)[C@H]3C(=O)C=C4[C@@H]5C[C@@](C)(C(=O)O)CC[C@]5(C)CC[C@@]4(C)[C@]3(C)CC[C@@H]12` [glycyrrhizic acid], in [1] (setting [11]), the IC50 was 23.2 to 323 µM.

As to `O=c1cc(-c2ccccc2)oc2cc(O)c(O)c(O)c12` [Baicalein], the IC50 in series [1] (read-out: IC50) worked out at 291 µM. Also, in series [2], the “mRNA expression level of cGAS” value was “significantly enhance”, the “mRNA level of IRF3” value is recorded as “no discernible differences”, the “mRNA level of STING” value is “significantly increase” and the “mRNA levels of IFN-β” value is “significantly elevate”. The CC50 with PK-15 cells worked out at 563 µM.

`COc1ccc([C@@H]2CC(=O)c3c(O)cc(O[C@@H]4O[C@H](CO[C@@H]5O[C@@H](C)[C@H](O)[C@@H](O)[C@H]5O)[C@@H](O)[C@H](O)[C@H]4O)cc3O2)cc1O` [Hesperidin] yielded a CC50 in the series on PK-15 cells of over 238 µM.

Compound `COc1ccc([C@@H]2CC(=O)c3c(O)cc(O[C@@H]4O[C@H](CO)[C@@H](O)[C@H](O)[C@H]4O[C@@H]4O[C@@H](C)[C@H](O)[C@@H](O)[C@H]4O)cc3O2)cc1O` [Neohesperidin] gave a CC50 with PK-15 cells of over 1000 µM.

`O=c1c2cc(O)c(O)cc2oc2cc(O)c([C@@H]3O[C@H](CO)[C@@H](O)[C@H](O)[C@H]3O)c(O)c12` [Mangiferin] gave a CC50 in “in vitro” of over 1050 µM.

Turning to `O=c1c(O)c(-c2ccc(O)c(O)c2)oc2cc(O)ccc12` [Fisetin], in the series “in vitro”, the CC50 was 717 µM. Further, in [1], the 50% inhibitory concentration (IC50) entry was “–^b”.

With `COc1ccc(-c2oc3c(CC=C(C)C)c(O[C@@H]4O[C@H](CO)[C@@H](O)[C@H](O)[C@H]4O)cc(O)c3c(=O)c2O[C@@H]2O[C@@H](C)[C@H](O)[C@@H](O)[C@H]2O)cc1` [Icariin], in “in vitro”, the CC50 is over 382 µM.

For `C[C@@H]1O[C@@H](OC[C@H]2O[C@@H](Oc3c(-c4ccc(O)c(O)c4)oc4cc(O)cc(O)c4c3=O)[C@H](O)[C@@H](O)[C@@H]2O)[C@H](O)[C@H](O)[C@H]1O` [Rutin], the CC50 in “in vitro” is over 389 µM.

Compound `O=c1c(O)c(-c2ccc(O)cc2)oc2cc(O)cc(O)c12` [Kaempferol] showed a CC50 in the series “in vitro” of 255 µM. In series [1] (setting [11]), this compound gave an IC50 of 25.6 µM.

For Pueraria, the CC50 in the series with PK-15 cells is over 461 µM.

In turn, `COc1ccc(-c2coc3cc(O)ccc3c2=O)cc1` [Formononetin] came in with a CC50 in “in vitro” of 228 µM.

In the case of `O=C1C[C@@H](c2ccc(O)cc2)Oc2cc(O)cc(O)c21` [Naringenin], in series [2], the “mRNA expression level of cGAS” value is listed as “significantly enhance”, the “mRNA level of IRF3” value was “no discernible differences” and the “mRNA levels of IFN-β” value was “significantly elevate”.

In turn, `O=C(O)[C@H]1O[C@@H](Oc2cc3oc(-c4ccc(O)cc4)cc(=O)c3c(O)c2O)[C@H](O)[C@@H](O)[C@@H]1O` [Scutellarin] showed a CC50 in the series “in vitro” of over 213 µM.

`O=C1c2c(O)cc(O)cc2O[C@H](c2cc(O)c(O)c(O)c2)[C@H]1O` [Dihydromyricetin] had a CC50 in the series “in vitro” of 914 µM. The same compound registered an IC50 in series [1] (setting [11]) of 161 µM.

In the case of `COc1cc(C2Oc3cc([C@H]4Oc5cc(O)cc(O)c5C(=O)[C@@H]4O)ccc3OC2CO)ccc1O` (some centres unmarked) [Silibinin], the CC50 in the series “in vitro” came out at 392 µM. For the same compound, the half-maximal inhibitory concentration (IC50) in series [1] (setting [11]) was found to be 203 µM.

`O=c1cc(-c2ccc(O)c(O)c2)oc2cc(O)cc(O)c12` [Lutelin]: the CC50 in the series “in vitro” was determined as 195 µM. The compound further had a half-maximal inhibitory concentration (IC50) in [1] (setting [11]) of 36.9 µM. In series [2], the “mRNA expression level of cGAS” value was “significantly enhance”, the “mRNA level of IRF3” value was “no discernible differences” and the “mRNA level of STING” value was “significantly increase”.

Regarding `O=C1C[C@@H](c2ccc(O)cc2)Oc2cc(O)ccc21` [Liquiritigenin], in series [1] (read-out: IC50), the half-maximal inhibitory concentration (IC50) was 323 µM. The CC50 with PK-15 cells turned out to be 790 µM.

As to `COc1ccc(-c2coc3cc(O)cc(O)c3c2=O)cc1` [Biochanin A], the CC50 in the series on PK-15 cells turned out to be 382 µM.

As to `COc1cc2c(cc1OC)-c1cc3ccc(OC)c(OC)c3c[n+]1CC2` [Palmatine], the CC50 with PK-15 cells worked out at 1250 µM.

The compound `OC[C@H]1O[C@@H](Oc2cc(O)cc(/C=C/c3ccc(O)cc3)c2)[C@H](O)[C@@H](O)[C@@H]1O` [Polydatin] showed a CC50 in “in vitro” of over 466 µM.

As to `Oc1ccc(/C=C/c2cc(O)cc(O)c2)cc1` [resveratrol], the IC50 in [1] (setting [11]) lay within 23.2 to 323 µM.

On to `O=c1c(O)c(-c2ccc(O)c(O)c2)oc2cc(O)cc(O)c12` [Quercetin], for which the values for the CC50 in “in vitro” and in the series on PK-15 cells (pig) were 449 µM and 890 µM, respectively.

With `O=c1c(O)c(-c2cc(O)c(O)c(O)c2)oc2cc(O)cc(O)c12` [Myricetin], the “increase in cGAMP production compared with the blank group” value in the series with cGAMP production is about 1.5 fold. This compound also gave a CC50 in the series “in vitro” of over 1000 µM. Besides, the IC50 in series [1] (setting [11]) is 42.7 µM. In addition, in series [3], the “effect proteins ISG15 and OAS1” value is given as “significantly increased”; the “protein levels of STAT1, p-STAT1 and p-STAT1/STAT1” value was “significantly higher”. In the series on PRV [4], the “mortality rate at 4 dpi” value is on record as 0%, the “mortality rate at 5 dpi” value is 30% and the “reduction in viral copies in the kidney” value was “up to 80 fold”. Moreover, the “transcriptional levels of cGAS, STING, TBK1, IRF3, IRF7, IFN-β, ISG56 and ISG54 in heart, liver, spleen, lung and kidney” value in series [5] was “significantly higher”. Moreover, in [6], the “expression levels of antiviral effectors MX1, OAS1 and ISG15 in brain and kidney” value is given as “higher expression levels”. The “production of IFN-β in tissues (ELISA)” value in the series with IFN-β is recorded as “significantly promote”. Further, the “total amount of IRF3 phosphorylation (fluorescence intensity)” value in the series with p-IRF3 is listed as “significant enhancement”. The “protein expressions of cGAS, STING, TBK1, IRF3 and p-IRF3” value in [7] is on record as “significantly increase”. The “levels of p-IRF3 and p-IRF3/IRF3” value in series [8] is on record as “significantly elevated”. Besides, the “mortality rate at 4 dpi” value in the series on PRV [9] is 70%. For the same compound, in series [2], the “mRNA expression level of cGAS” value was “significantly enhance”, the “mRNA level of IRF3” value is given as “significantly increase”, the “mRNA level of STING” value is “significantly increase” and the “mRNA levels of IFN-β” value was “significantly elevate”. Besides, the “mRNA levels of cGAS, STING, TBK1, IRF3, IRF7 and IFN-β” value in series [2] is listed as “all increased”. Also, the “transcriptional levels of JAK1, STAT1, IRF9, ISG15, ISG56 and ISG54” value in series [10] was “notable elevation”. For the same compound, the “expression level of the IFN-β promoter, ratio to infected control group” value with IFN-β promoter is on record as about 2 fold.

`O=c1cc(-c2ccccc2)oc2cc(O)cc(O)c12` [Chrysin] displayed a CC50 in “in vitro” of 107 µM.
